Tests used:
C57BL6/J mice [1] = test: Fatty liver in mice fed high unsaturated fat diet, liver tissue and H & E staining; format: in vivo, mouse; details: 45% UFAs diet 8 weeks, imiquimod 0.1 mg/kg injected twice a week
Procedure: (§1) C57BL6/J mice (Daehan Biolink, Daejeon, Korea) that induced obesity with feed containing 45% UFAs for 8 weeks and a knockout mouse (TLR7 KO) from Dr. Akira (Osaka University, Suita, Japan) in which TLR7 is not inherently present, were used. For this purpose, imiquimod was injected twice a week at a concentration of 0.1 mg/kg, while fatty liver model was made by feeding only high unsaturated fat diet (UFAs diet with 45% of the calories, Daehan Biolink, Daejeon, Korea) for 8 weeks.
As a result of H & E staining of tissue sections, balloon, a sign of fat accumulation between cells and cells, was found in UFAs fed mice, which was confirmed to be improved by imiquimod injection.

C57BL6/J mice [2] = test: Serological analysis of fatty liver mice (AST, ALT, triglyceride, total cholesterol); format: in vivo, mouse; details: UFAs feed 8 weeks, imiquimod 0.1 mg/kg twice a week
Procedure: as §1

LC3A/B and IGF-1 [3] = test: LC3A/B and IGF-1 protein levels in UFAs-treated mouse hepatocytes; format: cell-based; details: proteins isolated from hepatocytes, imiquimod treatment
Procedure: (§2) The imiquimod purchased in Example 1 was tested in cells. Mouse hepatocytes were obtained by cellizing liver tissues isolated from normal C57BL6/J mice and TLR7 KO mice lacking the TLR7 gene and fat accumulation was induced by treatment with 10 mM of unsaturated fatty acid (UFAs) mixed with arachidonic acid (Sigma, USA) and oleic acid (Sigma, USA) 1:1.
(§3) Cells were incubated at 37° C., 5% of CO2. DMEM (Dulbecco's modified Eagle's medium) containing 10% fetal bovine serum (FBS) and antibiotic (penicillin/streptomycin; Gibco, USA) was used as the cell culture medium. Every two days, the surface of the cultured cells was washed with phosphate buffered saline (PBS) and cells were isolated by treatment with 0.5% trypsin and then subcultured.
(§4) The imiquimod was treated at the concentration of 10 μg/ml 1 hour before the start of the experiment. UFAs were then added and the fat accumulation was assessed after 48 hours.
In FIG. 3, expression of autophagosome associated with congenital immunity and IGF-1 associated with fatty liver development was compared and evaluated. According to recently published international journals, It has been reported that as the expression of LC3A/B, an indicator of autophagosome increases, fatty liver improves, and as IGF-1 is inhibited, the fatty liver improves.

C57BL6/J mice [4] = test: Triglyceride and cholesterol in liver tissue of fatty liver mice (ELISA); format: in vivo, mouse; details: UFAs feed 8 weeks, imiquimod 0.1 mg/kg twice a week
Procedure: as §1
The liver tissues separated from the mouse were finely crushed to prepare analytical samples, and the levels of triglyceride and cholesterol were measured using Enzyme Linked ImmunoSorbent Assay (ELISA) (FIG. 7).

[5] = system: SREBP-1, FAS, aP2 and PPARγ gene expression; test: Real time RT-PCR of fat-related genes in UFAs-treated mouse hepatocytes; format: cell-based; details: imiquimod 10 μg/ml
Procedure: as §2, §3, §4
To determine the level of RNA expression at the gene level of fatty acid synthase (FAS), SREBP-1 (sterol regulatory element binding protein-1), PPARγ (peroxisome proliferator-activated receptor), and aP2 (fatty acid binding protein 4), real time RT-PCR (ABI Step One Plus Sequence System, Applied Biosystems, Singapore) was performed. The PPARγ and FAS are directly related to fat metabolism, and since the metabolism is regulated by the aP2 and SREBP-1 factor, it was determined whether imiquimod affects the factor.
From the above results, it was confirmed that imiquimod inhibited lipid accumulation in hepatocytes through inhibition of SREBP-1, FAS, aP2 and PPARγ gene expression.

[6] = system: SREBP-1, FAS, PPAR-γ, and aP2; test: Real-time RT-PCR of fat-induced genes in liver tissue of fatty liver mice; format: in vivo, mouse; details: UFAs feed 8 weeks, imiquimod 0.1 mg/kg twice a week, liver mRNA
Procedure: as §1
Fat-induced genes such as SREBP-1, FAS, PPAR-γ, and aP2 were increased in liver tissues from liver-derived mice fed UFAs compared to the control group.

LC3A/B and IGF-1 [7] = test: LC3A/B and IGF-1 protein expression in liver tissue of fatty liver mice; format: in vivo, mouse; details: fatty liver induced by UFAs, imiquimod 0.1 mg/kg twice a week, proteins from liver tissue
Procedure: as §1
Autophagosome associated with congenital immunity, and expression of IGF-1 associated with fatty liver development were compared and evaluated with proteins isolated from liver tissue. Similar to the protein isolated from the hepatocytes, and expression of TLR7 and its downstream transcript Myd88 was also confirmed, and as a result, we confirmed that imiquimod affects the expression of LC3A/B, an autophagosome marker, and IGF-1, a hepatocyte-producing protein, through TLR7 hyperactivity.

Mouse hepatocytes = test: Fat accumulation in UFAs-treated mouse hepatocytes (oil-red-o staining, absorbance at 540 nm); format: cell-based; details: imiquimod 10 μg/ml 1 hour before UFAs, 48 hours, vs group without treatment
Procedure: as §2, §3, §4
In order to confirm that imiquimod inhibits the fat accumulation effect in hepatocytes, the cells were cultured for 48 hours after the reagent treatment according to the method of Example 2 above. The cells were stained with an oil-red-o reagent (Lifeline Cell Technology, Carlsbad, Calif., USA) and the accumulation of fat was visually evaluated (FIG. 1).

CC(C)Cn1cnc2c(N)nc3ccccc3c21 [imiquimod]
balloon (sign of fat accumulation), H & E staining of tissue sections (C57BL6/J mice [1]): improved
development of fatty liver (evaluation of liver tissue) (C57BL6/J mice [1]): significant inhibition
serum ALT level (C57BL6/J mice [2]): significantly decreased
serum AST level (C57BL6/J mice [2]): significantly decreased
serum cholesterol level (C57BL6/J mice [2]): significantly reduced
serum triglyceride level (C57BL6/J mice [2]): significantly reduced
IGF-1 protein level (LC3A/B and IGF-1 [3]; IGF-1 increased by UFAs): decreases
LC3A/B (indicator of autophagosome) protein level (LC3A/B and IGF-1 [3]; LC3A/B inhibited by UFAs): significant increases
cholesterol level in liver tissue (C57BL6/J mice [4]): significant reductions
triglyceride level in liver tissue (C57BL6/J mice [4]): significant reductions
expression of FAS [5]: inhibited the expression
expression of PPARγ [5]: inhibited the expression
expression of SREBP-1 [5]: inhibited the expression
expression of aP2 [5]: inhibited the expression
FAS gene expression in liver tissue [6]: significantly reduced
PPAR-γ gene expression in liver tissue [6]: significantly reduced
SREBP-1 gene expression in liver tissue [6]: significantly reduced
aP2 gene expression in liver tissue [6]: significantly reduced
IGF-1 expression in liver tissue (LC3A/B and IGF-1 [7]): decreased
LC3A/B expression in liver tissue (LC3A/B and IGF-1 [7]): significantly increased
level of fat (absorbance at 540 nm) (Mouse hepatocytes): lower than that in the group without treatment
